This passage reports EC50 results from patent US6555580B2, “Amino- and amido-diphenyl ethers” (Bayer Aktiengesellschaft, priority 2000, dated 2003).

This assay in a line: T3 promoter assay cell test (luciferase reporter under thyroid hormone-regulated promoter). The assay is classed as cell-based. The following applies: Homo sapiens; HepG2 luciferase reporter with thyroid hormone-responsive element; costimulator retinoic acid; incubation 48 or 72 hours; four replicates. The protocol:
The activity of the compounds according to the invention can be tested for example in vitro by the known T3 promoter assay cell test which is described below.
T3 Promoter Assay Cell Test
The test is carried out with a stably transfected human HepG2 hepatocarcinoma cell which expresses a luciferase gene under the control of a thyroid hormone-regulated promoter. The vector used for the transfection has upstream of the luciferase gene a minimal thymidine kinase promoter with a thyroid hormone-responsive element (TRE) which consists of two inverted palindromes each of 12 bp and of an 8 bp spacer.
For the test, the cell cultures are seeded in Eagle's minimal essential medium in 96-well plates with the following additions: glutamine, tricine, sodium pyruvate, nonessential amino acids, insulin, selenium and transferrin. The cultures are grown at 37° C. with a 10% CO2 atmosphere for 48 hours. In serial dilutions of test substance or reference compound (triiodothyronine=T3, thyroxine=T4) and costimulator retinoic acid are added to the test cultures and the latter are incubated as previously for a further 48 or 72 hours. Each substance concentration is tested in four replicates. To determine the luciferase induced by T3 or other substances, the cells are subsequently lysed by adding a Triton- and luciferin-containing buffer and measured immediately in a luminometer. The EC50 values for each compound are calculated (see Table 1).
A general note: Reporter assays use an easily measured gene product as a stand-in for the process of interest.
Broadly, the EC50 is the concentration giving half of the maximal effect. A higher EC50 goes with lower potency in that assay. Consider `CCOC(=O)C(=O)Nc1cc(C)c(Oc2ccc(O)c(CN(Cc3ccccc3)Cc3ccccc3)c2)c(C)c1` [Example 54], for which the EC50 came to 0.0067 µM.

In turn, `CCCN(Cc1ccccc1)Cc1cc(Oc2c(C)cc(NC(=O)C(=O)OCC)cc2C)ccc1O` [Example 29] had an EC50 of 0.0024 µM. Against the preceding compound, the EC50 is about 2.8-fold lower. With `CCOC(=O)C(=O)Nc1cc(C)c(Oc2ccc(O)c(C(=O)N(C)C3CCCCC3)c2)c(C)c1` [Example 16, Ethyl [4-(3-{[cyclohexyl(methyl)amino]carbonyl}-4-hydroxyphenoxy)-3,5-dimethylanilino](oxo)acetate], the response was half-maximal at 0.028 µM (EC50). Against the preceding compound, the EC50 is about 12-fold higher. The result for `CCOC(=O)C(=O)Nc1cc(C)c(Oc2ccc(O)c(NC(=O)C(C)Oc3ccc(Cl)cc3C)c2)c(C)c1` (centres unmarked) [Example 190] reads 0.014 µM; that for `CCOC(=O)C(=O)Nc1cc(C)c(Oc2ccc(O)c(NC(=O)CCc3ccccc3)c2)c(C)c1` [Example 8, Ethyl (4-{4-hydroxy-3-[(3-phenylpropanoyl)amino]phenoxy}-3,5-dimethylanilino)(oxo)acetate], 0.02 µM; that for `CCOC(=O)C(=O)Nc1cc(C)c(Oc2ccc(O)c(C(=O)NC(CC)c3ccccc3)c2)c(C)c1` (centres unmarked) [Example 260], 0.012 µM. Next, `CCCCCCCC(=O)N(Cc1cc(Oc2c(C)cc(NC(=O)C(=O)OCC)cc2C)ccc1O)c1ccc(F)cc1` [Example 122]: 0.055 µM; `Cc1cc(N)cc(C)c1Oc1ccc(O)c(NC(=O)NC(C)c2ccccc2)c1` (centres unmarked) [Example 204]: 0.061 µM.
